This assay relates to diabetic patient with neuropathy of the lower extremities. In words: Case reports: diabetic patients with neuropathy / pain of the lower extremities. The class given is in vivo, human. Here is the method:
2. A diabetic patient with severe pains in their legs reported that it was very difficult for them to sleep with the pain. At first, they were instructed to take the one-half the regimen described in Example 1, that is 10 mgs of desipramine and 1 mg of fluphenazine at bedtime. […] 3. A diabetic patient with neuropathy of the lower extremities was prescribed 10 mgs of desipramine alone orally every twelve hours. […] 4. A diabetic patient with severe pain in the lower legs and feet was instructed to take 1 mg of fluphenazine hydrochloride orally every twelve hours beginning at bedtime. […] 5. A diabetic patient with severe lower extremity neuropathy manifested as pain in the lower legs and feet was instructed to take 2 mgs of fluphenazine hydrochloride orally every twelve hours beginning at bedtime.

Counter-ions that a name gives are not always drawn.

As to `CNCCCN1c2ccccc2CCc2ccccc21` [desipramine], the patient-reported pain reduction result is recorded as “lack of effectiveness in reducing pain” (diabetic patient (Example 3), desipramine alone, 10 mgs orally every twelve hours (20 mgs/day)) and “lack of effectiveness in reducing pain” (diabetic patient (Example 3), desipramine alone, higher dosage of 40 mgs per day).
`OCCN1CCN(CCCN2c3ccccc3Sc3ccc(C(F)(F)F)cc32)CC1` [fluphenazine hydrochloride]: the patient-reported pain reduction result (diabetic patient (Example 4), fluphenazine hydrochloride alone, 1 mg orally every twelve hours, after two weeks) is recorded as “somewhat of an improvement in pain reduction, but not complete elimination”; the patient-reported pain reduction entry (diabetic patient (Example 5), fluphenazine hydrochloride alone, 2 mgs orally every twelve hours, after two weeks) is “somewhat of an improvement in pain reduction, but not complete elimination”; the patient-reported pain reduction entry (diabetic patient (Example 5), fluphenazine hydrochloride alone, 4 mgs every twelve hours) is on record as “substantial improvement in reducing the severity of pain”.

These data come from patent US20050209220A1, “Treatment of peripheral neuropathy” (priority 2004, published 2005).
